{"source": "paper PMC8433052", "about": "(iScience, 2021)", "key": {"SARS-CoV [1]": {"test_system": "SARS-CoV", "assay_type": "cell-based", "details": "MRC5/ACE2 cells, 1 μM, 48 hpi"}, "[2]": {"test": "Cytotoxicity assay in BHK-21 cells", "assay_type": "cell-based, Hamster", "details": "hamster"}, "BHK-21 cells": {"test_system": "BHK-21 cells", "test": "Cytotoxicity assay in BHK-21 cells", "assay_type": "cell-based, Hamster", "details": "concentrations up to 20 μM"}, "[3]": {"test": "Cytotoxicity against VeroE6/TMPRSS2 cells", "assay_type": "cell-based", "details": "African green monkey", "description": "(§1) The MTT (3-[4,5-dimethyl-2-thiazolyl]-2,5-diphenyl-2H-tetrazolium bromide) and resazurin reduction assays were carried out as previously described ([Nobori et al., 2018]; [Sanaki et al., 2019]). These were performed to calculate cell viability following viral induced CPE or cytotoxicity. Assay conditions for flaviviruses are as described in Table 2."}, "SARS-CoV-2 [4]": {"test_system": "SARS-CoV-2", "test": "qRT-PCR analysis of SARS-CoV-2 in Caco-2 cells (rescreening, supernatant viral RNA)", "assay_type": "cell-based", "details": "Severe acute respiratory syndrome coronavirus 2; qRT-PCR analysis using Caco-2 cells, MOI 0.1, 48 h"}, "HCoV-OC43 [5]": {"test_system": "HCoV-OC43", "test": "Immunofluorescence assay of viral nucleoprotein, HCoV-OC43 in A549/TMPRSS2 cells", "assay_type": "cell-based, Human coronavirus OC43", "details": "HCoV-OC43 MOI 1, 48 hpi"}, "SARS-CoV-2 [6]": {"test_system": "SARS-CoV-2", "test": "Time-of-addition assay, SARS-CoV-2 in Caco-2 cells", "assay_type": "cell-based", "details": "1 μM added at 3 hpi, read at 24 hpi", "description": "The time-of-addition assay was performed according to previous reports ([Ohashi et al., 2021]; [Wang et al., 2020]). Briefly, Caco-2 cells were seeded on the day before SARS-CoV-2 infection (MOI of 0.1) and compound treatment. One micromolar HMTU or DMSO was then added at the indicated time points (Whole, Entry, and Post-entry). For “Whole” treatment, the cells were incubated with both the compound and virus for 1 h. After incubation, unbound viruses were removed, and the cells were cultured with HMTU-containing medium for 2 h to allow viral entry. At 3 hpi, culture supernatants were replaced with new HMTU-containing media and maintained until the end of the experiment. For “Entry” treatment, the cells were incubated as described above, and at 3 hpi, HMTU-containing media were replaced with fresh culture media and maintained until the end of the experiments. For “Post-entry” treatment, HMTU was added to the virus-infected cells at 3 hpi and maintained until the end of the experiment. At 24 hpi, total RNA was isolated, and viral RNA was quantified using qRT–PCR analysis as described above. Supernatants were collected, after which serial dilutions of these supernatants were used to inoculate a monolayer of the VeroE6/TMPRSS2 cells. Three days after inoculation, the CPE was scored, and TCID50/mL was calculated to measure viral titers."}, "DENV4": {"test_system": "DENV4", "test": "CPE-based antiviral assay (resazurin), DENV4 in BHK-21", "assay_type": "cell-based, Dengue virus 4", "details": "Dengue virus, DENV4, BHK-21, 120 h, read-out: EC50 against DENV4"}, "SARS-CoV [7]": {"test_system": "SARS-CoV", "assay_type": "cell-based", "details": "supernatants of SARS-CoV-infected Caco-2 cells, 0.5 μM, 48 hpi"}, "HCoV-229E [8]": {"test_system": "HCoV-229E", "test": "qRT-PCR of viral RNA, HCoV-229E-infected Huh7 cells", "assay_type": "cell-based, Human coronavirus 229E", "details": "MOI 0.05, 48 hpi, serially diluted compound"}, "MRC5 cells": {"test_system": "MRC5 cells", "test": "Cytotoxicity against MRC5 cells", "assay_type": "cell-based, Human", "details": "mean from three independent experiments (Table 4), read-out: CC50 MRC5, mean", "description": "as §1"}, "[9]": {"test": "Cytotoxicity against MRC5 cells", "assay_type": "cell-based, Human", "details": "human, rescreening (Table 3), read-out: CC50", "description": "as §1"}, "DENV3": {"test_system": "DENV3", "test": "CPE-based antiviral assay (resazurin), DENV3 in BHK-21", "assay_type": "cell-based, Dengue virus 3", "details": "Dengue virus, DENV3, BHK-21, 120 h, read-out: EC50 against DENV3"}, "DENV2": {"test_system": "DENV2", "test": "CPE-based antiviral assay (resazurin), DENV2 in BHK-21", "assay_type": "cell-based, Dengue virus 2", "details": "Dengue virus, DENV2, BHK-21, 96 h, read-out: EC50 against DENV2"}, "SARS-CoV-2 [10]": {"test_system": "SARS-CoV-2", "test": "Immunofluorescence assay of viral spike protein, SARS-CoV-2 in MRC5/ACE2 cells", "assay_type": "cell-based"}, "[11]": {"test": "Cytotoxicity against Caco-2 cells", "assay_type": "cell-based", "details": "human", "description": "as §1"}, "JEV": {"test_system": "JEV", "test": "CPE-based antiviral assay (MTT), JEV in BHK-21", "assay_type": "cell-based", "details": "Japanese encephalitis virus, BHK-21, 72 h, read-out: EC50 against JEV"}, "HCoV-229E [12]": {"test_system": "HCoV-229E", "test": "Resazurin reduction assay, HCoV-229E-infected MRC5 cells", "details": "for EC50: Human coronavirus 229E"}, "[13]": {"test": "Cytotoxicity against A549/TMPRSS2 cells", "assay_type": "cell-based", "details": "human", "description": "as §1"}, "SARS-CoV-2 [14]": {"test_system": "SARS-CoV-2", "test": "qRT-PCR of viral RNA, SARS-CoV-2-infected Caco-2 cells", "assay_type": "cell-based", "details": "MOI 0.1, 48 hpi"}, "ZIKV": {"test_system": "ZIKV", "test": "CPE-based antiviral assay (MTT), ZIKV in BHK-21", "assay_type": "cell-based", "details": "Zika virus, BHK-21, 72 h, read-out: EC50 against ZIKV"}, "SARS-CoV [15]": {"test_system": "SARS-CoV", "assay_type": "cell-based", "details": "Caco-2 cells, MOI 0.1, 48 hpi"}, "SARS-CoV-2 [16]": {"test_system": "SARS-CoV-2", "assay_type": "cell-based"}, "HCoV-OC43 [17]": {"test_system": "HCoV-OC43", "test": "qRT-PCR of viral RNA, HCoV-OC43-infected Huh7 cells", "assay_type": "cell-based, Human coronavirus OC43", "details": "MOI 0.1, 48 hpi, serially diluted compound"}, "DENV1": {"test_system": "DENV1", "test": "CPE-based antiviral assay (resazurin), DENV1 in BHK-21", "assay_type": "cell-based, Dengue virus 1", "details": "Dengue virus, DENV1, BHK-21, 120 h, read-out: EC50 against DENV1"}, "WNV": {"test_system": "WNV", "test": "CPE-based antiviral assay (MTT), WNV in BHK-21", "assay_type": "cell-based", "details": "West Nile virus, BHK-21, 72 h, read-out: EC50 against WNV"}, "HCoV-OC43 [18]": {"test_system": "HCoV-OC43", "test": "Resazurin reduction assay, HCoV-OC43-infected MRC5 cells"}, "HCoV-OC43 [19]": {"test_system": "HCoV-OC43", "assay_type": "cell-based, Human coronavirus OC43"}, "[20]": {"test": "Cytotoxicity against Huh7 cells", "assay_type": "cell-based", "details": "human", "description": "as §1"}, "YFV": {"test_system": "YFV", "test": "microbe, parasite or virus in culture", "assay_type": "cell-based", "details": "Yellow fever virus, BHK-21, 72 h, read-out: EC50 against YFV"}, "[21]": {"details": "MRC5 cells, resazurin reduction assay"}}, "note": "Like-named read-outs stand apart in the source and are kept apart here.", "data": [{"smiles": "Nc1ncnc2c1c(CO)cn2[C@@H]1O[C@H](CO)[C@@H](O)[C@H]1O", "note": "[HUP1108, 5-hydroxymethyltubercidin]", "values": [{"measurement": "viral spike protein expression (IFA)", "setting": "SARS-CoV [1]", "result": "significantly inhibited"}, {"measurement": "CC50", "setting": "[2]", "result": "> 20000", "unit": "nM"}, {"measurement": "cytotoxicity (in words)", "setting": "BHK-21 cells", "result": "did not exhibit cytotoxicity"}, {"measurement": "CC50", "setting": "[3]", "result": "> 20000", "unit": "nM"}, {"measurement": "EC90", "setting": "SARS-CoV-2 [4]", "result": 570, "unit": "nM"}, {"measurement": "positive signals of viral nucleoprotein (IFA)", "setting": "HCoV-OC43 [5]", "result": "decreased in a dose-dependent fashion"}, {"measurement": "intracellular and extracellular viral RNAs, post-entry step", "setting": "SARS-CoV-2 [6]", "result": "significantly reduced"}, {"measurement": "EC50", "setting": "DENV4", "result": 520, "unit": "nM"}, {"measurement": "reduction of progeny virus titer", "setting": "SARS-CoV [7]", "result": "more than 1 log TCID50/mL"}, {"measurement": "HCoV-229E replication, subgenomic (nucleocapsid) and genomic (ORF1b) RNA transcripts", "setting": "HCoV-229E [8]", "result": "dose-dependent inhibition"}, {"measurement": "CC50", "setting": "MRC5 cells", "result": "> 50000", "unit": "nM"}, {"measurement": "CC50", "setting": "[9]", "result": "> 50000", "unit": "nM"}, {"measurement": "EC50", "setting": "DENV3", "result": 420, "unit": "nM"}, {"measurement": "EC50", "setting": "DENV2", "result": 240, "unit": "nM"}, {"measurement": "viral spike protein expression (IFA)", "setting": "SARS-CoV-2 [10]", "result": "significantly inhibited"}, {"measurement": "CC50", "setting": "[11]", "result": "> 20000", "unit": "nM"}, {"measurement": "EC50", "setting": "JEV", "result": 500, "unit": "nM"}, {"measurement": "EC50", "setting": "HCoV-229E [12]; MRC5, read-out: HCoV-229E EC50", "result": 430, "unit": "nM"}, {"measurement": "EC50", "setting": "HCoV-229E [12]; MRC5, read-out: HCoV-229E EC50, mean", "result": 528, "unit": "nM"}, {"measurement": "selectivity index (SI = CC50/EC50) for HCoV-229E", "setting": "HCoV-229E [12]; MRC5 cells", "result": "> 94"}, {"measurement": "anti-HCoV-229E activity (in words)", "setting": "HCoV-229E [12]; [21]", "result": "strong antiviral activities"}, {"measurement": "CC50", "setting": "[13]", "result": "> 20000", "unit": "nM"}, {"measurement": "SARS-CoV-2 RNA replication, subgenomic (nucleocapsid) and genomic (RdRp) transcripts", "setting": "SARS-CoV-2 [14]", "result": "inhibited in a dose-dependent manner"}, {"measurement": "EC50", "setting": "ZIKV", "result": 1300, "unit": "nM"}, {"measurement": "SARS-CoV RNA replication, subgenomic (nucleocapsid) and genomic (RdRp) transcripts", "setting": "SARS-CoV [15]", "result": "inhibited in a dose-dependent manner"}, {"measurement": "reduction of progeny virus titer", "setting": "SARS-CoV-2 [16]", "result": "more than 1 log TCID50/mL"}, {"measurement": "HCoV-OC43 replication, subgenomic (nucleocapsid) and genomic (ORF1b) RNA transcripts", "setting": "HCoV-OC43 [17]", "result": "dose-dependent inhibition"}, {"measurement": "EC50", "setting": "DENV1", "result": 350, "unit": "nM"}, {"measurement": "EC50", "setting": "WNV", "result": 950, "unit": "nM"}, {"measurement": "EC50", "setting": "HCoV-OC43 [18]; Betacoronavirus 1, OC43, MRC5, read-out: HCoV-OC43 EC50", "result": 350, "unit": "nM"}, {"measurement": "EC50", "setting": "HCoV-OC43 [18]; Betacoronavirus 1, OC43, MRC5, read-out: HCoV-OC43 EC50, mean", "result": 378, "unit": "nM"}, {"measurement": "selectivity index (SI = CC50/EC50) for HCoV-OC43", "setting": "HCoV-OC43 [18]; MRC5 cells", "result": "> 132"}, {"measurement": "anti-HCoV-OC43 activity (in words)", "setting": "HCoV-OC43 [18]; [21]", "result": "strong antiviral activities"}, {"measurement": "reduction in progeny virus titer", "setting": "HCoV-OC43 [19]", "result": "> 1", "unit": "log"}, {"measurement": "CC50", "setting": "[20]", "result": "> 20000", "unit": "nM"}, {"measurement": "EC50", "setting": "YFV", "result": 270, "unit": "nM"}]}]}
